Numbers after ± are expanded uncertainties.
Details: Liquid; for mass density: Vibrating wire densiometer; for viscosity: Vibrating wire viscometry

CCCCCCCCCCCCCCCC [hexadecane]
Details | mass density [kg/m3] | viscosity [mPa·s]
298.36 K, 1060 kPa | 769.2 ± 2.3 | 3.107 ± 0.065
298.36 K, 1080 kPa | 769.2 ± 2.3 | 3.109 ± 0.065
298.36 K, 10010 kPa | 775 ± 2.3 | 3.497 ± 0.072
298.36 K, 21090 kPa | 781.2 ± 2.3 | 4.032 ± 0.084
298.36 K, 30500 kPa | 786.4 ± 2.4 | 4.534 ± 0.094
298.61 K, 970 kPa | 768.9 ± 2.3 | 3.143 ± 0.065
298.61 K, 10340 kPa | 774.7 ± 2.3 | 3.562 ± 0.073
298.61 K, 20570 kPa | 780.8 ± 2.3 | 4.041 ± 0.084
298.61 K, 30370 kPa | 785.9 ± 2.4 | 4.588 ± 0.094
323.21 K, 1090 kPa | 751.5 ± 2.3 | 1.874 ± 0.04
323.21 K, 1250 kPa | 751.7 ± 2.3 | 1.872 ± 0.04
323.21 K, 21100 kPa | 765.2 ± 2.3 | 2.387 ± 0.05
323.21 K, 40990 kPa | 776.9 ± 2.3 | 2.957 ± 0.061
323.21 K, 60490 kPa | 787.1 ± 2.4 | 3.598 ± 0.075
323.21 K, 80320 kPa | 796 ± 2.4 | 4.381 ± 0.091
323.21 K, 102810 kPa | 803.3 ± 2.4 | 5.08 ± 0.11
323.22 K, 990 kPa | 752.4 ± 2.3 | 1.878 ± 0.04
323.22 K, 20960 kPa | 764.8 ± 2.3 | 2.429 ± 0.051
323.22 K, 42100 kPa | 777.2 ± 2.3 | 3.007 ± 0.062
323.22 K, 61170 kPa | 787.4 ± 2.4 | 3.666 ± 0.076
323.22 K, 81170 kPa | 796 ± 2.4 | 4.471 ± 0.092
348.2 K, 610 kPa | 734.8 ± 2.2 | 1.275 ± 0.027
348.2 K, 1010 kPa | 734.4 ± 2.2 | 1.255 ± 0.027
348.2 K, 1070 kPa | 734.5 ± 2.2 | 1.251 ± 0.027
348.2 K, 20050 kPa | 749.2 ± 2.3 | 1.57 ± 0.033
348.2 K, 20370 kPa | 749.8 ± 2.3 | 1.595 ± 0.033
348.2 K, 40520 kPa | 762.5 ± 2.3 | 1.939 ± 0.041
348.2 K, 40780 kPa | 762.9 ± 2.3 | 1.97 ± 0.041
348.2 K, 60680 kPa | 773.7 ± 2.3 | 2.356 ± 0.049
348.2 K, 62000 kPa | 773.9 ± 2.3 | 2.398 ± 0.05
348.2 K, 80380 kPa | 783.3 ± 2.4 | 2.813 ± 0.059
348.2 K, 80450 kPa | 783.5 ± 2.4 | 2.806 ± 0.059
348.2 K, 100940 kPa | 791.9 ± 2.4 | 3.278 ± 0.068
373.12 K, 1210 kPa | 717.2 ± 2.2 | 0.911 ± 0.02
373.12 K, 1240 kPa | 717.3 ± 2.2 | 0.91 ± 0.02
373.12 K, 20080 kPa | 733.9 ± 2.2 | 1.136 ± 0.024
373.12 K, 40700 kPa | 748.6 ± 2.2 | 1.397 ± 0.029
373.12 K, 60760 kPa | 760.8 ± 2.3 | 1.678 ± 0.035
373.12 K, 80760 kPa | 771.3 ± 2.3 | 1.988 ± 0.042
373.12 K, 100220 kPa | 780.9 ± 2.3 | 2.303 ± 0.048
373.25 K, 1370 kPa | 717.7 ± 2.2 | 0.926 ± 0.02
373.25 K, 19850 kPa | 733.7 ± 2.2 | 1.148 ± 0.024
373.25 K, 40190 kPa | 748.6 ± 2.2 | 1.399 ± 0.029
373.25 K, 59970 kPa | 760.4 ± 2.3 | 1.692 ± 0.035
373.25 K, 81310 kPa | 771.4 ± 2.3 | 1.995 ± 0.042
398.21 K, 1230 kPa | 700.1 ± 2.1 | 0.693 ± 0.015
398.21 K, 1670 kPa | 700.4 ± 2.1 | 0.694 ± 0.015
398.21 K, 20450 kPa | 719.1 ± 2.2 | 0.872 ± 0.019
398.21 K, 40750 kPa | 735.1 ± 2.2 | 1.066 ± 0.023
398.21 K, 60560 kPa | 748.2 ± 2.2 | 1.265 ± 0.027
398.21 K, 80390 kPa | 759.4 ± 2.3 | 1.488 ± 0.031
398.21 K, 100460 kPa | 769.4 ± 2.3 | 1.71 ± 0.036
398.28 K, 1050 kPa | 700.3 ± 2.1 | 0.697 ± 0.015
398.28 K, 21190 kPa | 719.6 ± 2.2 | 0.879 ± 0.019
398.28 K, 41290 kPa | 735.3 ± 2.2 | 1.082 ± 0.023
398.28 K, 59990 kPa | 747.8 ± 2.2 | 1.267 ± 0.027
398.28 K, 80670 kPa | 759.3 ± 2.3 | 1.498 ± 0.031
423.26 K, 1360 kPa | 682.2 ± 2.1 | 0.542 ± 0.012
423.26 K, 1420 kPa | 682.4 ± 2.1 | 0.544 ± 0.012
423.26 K, 20790 kPa | 704.2 ± 2.1 | 0.691 ± 0.015
423.26 K, 40900 kPa | 721.5 ± 2.2 | 0.845 ± 0.018
423.26 K, 60040 kPa | 735.2 ± 2.2 | 0.998 ± 0.021
423.26 K, 80490 kPa | 747.7 ± 2.2 | 1.171 ± 0.025
423.26 K, 100020 kPa | 758.2 ± 2.3 | 1.348 ± 0.028
423.31 K, 1460 kPa | 682.9 ± 2.1 | 0.554 ± 0.012
423.31 K, 20610 kPa | 704.4 ± 2.1 | 0.699 ± 0.015
423.31 K, 40760 kPa | 721.8 ± 2.2 | 0.853 ± 0.018
423.31 K, 60120 kPa | 735.2 ± 2.2 | 1.012 ± 0.022
423.31 K, 80990 kPa | 748.2 ± 2.2 | 1.189 ± 0.025
448.23 K, 1100 kPa | 664 ± 2 | 0.437 ± 0.01
448.23 K, 1170 kPa | 664.1 ± 2 | 0.438 ± 0.01
448.23 K, 20220 kPa | 688.7 ± 2.1 | 0.559 ± 0.013
448.23 K, 40500 kPa | 708.1 ± 2.1 | 0.689 ± 0.015
448.23 K, 60460 kPa | 723.5 ± 2.2 | 0.82 ± 0.018
448.23 K, 80430 kPa | 736.5 ± 2.2 | 0.958 ± 0.02
448.23 K, 100270 kPa | 748 ± 2.2 | 1.098 ± 0.023
448.48 K, 1230 kPa | 663.8 ± 2 | 0.445 ± 0.01
448.48 K, 20750 kPa | 688.9 ± 2.1 | 0.571 ± 0.013
448.48 K, 40680 kPa | 707.8 ± 2.1 | 0.702 ± 0.015
448.48 K, 60650 kPa | 723.1 ± 2.2 | 0.831 ± 0.018
448.48 K, 80720 kPa | 736.2 ± 2.2 | 0.97 ± 0.021
473.54 K, 1250 kPa | 645.4 ± 2 | 0.359 ± 0.01
473.54 K, 1270 kPa | 645.8 ± 1.9 | 0.36 ± 0.009
473.54 K, 20770 kPa | 674.2 ± 2 | 0.469 ± 0.011
473.54 K, 40980 kPa | 695.3 ± 2.1 | 0.579 ± 0.013
473.54 K, 60770 kPa | 711.8 ± 2.1 | 0.688 ± 0.015
473.54 K, 80500 kPa | 725.5 ± 2.2 | 0.803 ± 0.017
473.54 K, 101080 kPa | 738.1 ± 2.2 | 0.924 ± 0.02
473.85 K, 1400 kPa | 645.2 ± 1.9 | 0.367 ± 0.009
473.85 K, 21260 kPa | 674.3 ± 2 | 0.478 ± 0.011
473.85 K, 41040 kPa | 694.7 ± 2.1 | 0.59 ± 0.013
473.85 K, 61190 kPa | 711.3 ± 2.1 | 0.706 ± 0.015
473.85 K, 81710 kPa | 725.7 ± 2.2 | 0.815 ± 0.018
